Laboratory results as given in patent publication US5004758A, “Water soluble camptothecin analogs useful for inhibiting the growth of animal tumor cells” (priority 1988, dated 1991).
Where “and” joins values, the source holds several entries; their conditions need not be identical. Equal entries are not always repeated. Structures can show the parent of a compound that is named as a salt. Where two headings read alike, the source gives them in different places.

Columns and labels:
Format in all cases: in vivo, mouse
ip M5076 sarcoma = test: ip-implanted M5076 sarcoma in mice
From the text: Tumors used in these studies--P388 leukemia and its doxorbicin--and mitoxanrone-resistant sublines, L1210 leukemia, B16 melanoma, B16 melanoma/F10 subline, M5076 sarcoma and colon carcinoma 26--are maintained by serial transplantation in syngeneic strains of mice. For the leukemias, these tumors are maintained in DBA/2 mice. The M5076 sarcoma, the B16 melanoma and its F10 subline are maintained in C57B1/6 mice and the colon sarcinoma 26 is maintained in BALB/c mice. The leukemias and the M5076 sarcoma are serially transplanted i.p. as ascites cell suspensions while the B16 melanoma lines and the colon carcinoma 26 are serially transplanted as s.c. solid tumors.
For therapeutic trials, tumors are aseptically removed from donor mice and prepared as suspensions for implantation ip into test animals. The test animals for the colon carcinoma 26 are female BALB/c mice (20-25 gm). The test animals for the other tumor models are syngeneic female F1 hybrid B6D2F1 mice (C57B1/6 x DBA/2). The inoculum level varies with the type of tumor: P388 leukemia is inoculated at 10^6 cells per mouse, L1210 leukemia at 10^5 or 10^6 cells per mouse, M5076 sarcoma at 5×10^6 cells per mouse. For implantation of the B16 melanoma lines and the colon carcinoma 26, s.c. tumors from donor mice are minced and homogenized in loose fitting teflon glass homogenizer to give a tumor brei. The inoculum levels are 0.5 ml of a 10 percent (w:v) brei of the B16 melanoma lines and 0.5 ml of a 5 percent (w:v) brei of colon carcinoma 26. After tumor inoculation, mice randomized to treatment groups comprised of 6-8 mice each. In each experiment, there are three groups of untreated control mice. Drugs are dissolved or suspended in appropriate aqueous vehicles and given by a variety of routes and schedules of administration over a range of dose levels. Animals are housed in shoebox cages and are monitored daily for mortality for 30 (L1210), 45 (P388) or 60 (B16, M5076, colon 26) days.

sc Lewis lung carcinoma = conditions: mouse, in vivo
From the text: (§1) The inoculum varies with the tumor.

[1] = tested on: sc B16 melanoma/F10 subline; test: sc-implanted B16 melanoma/F10 subline in mice
From the text: as §1

sc ADJ-PC6 plasmacytoma = test: sc-implanted ADJ-PC6 plasmacytoma in mice; conditions: for Mice without Palpable Tumors: sc ADJ-PC6, B/ip
Description: Inhibition of tumor growth (TGI) is based on mean tumor volume of groups of 7 or 8 mice relative to untreated controls. Tumors were measured between Days 12 and 19 (except Day 24 for Colon 51 and Day 31 for Colon 38).
Tumors used in these studies are maintained by serial transplantation in syngeneic strains of mice C57BL/6 for Lewis lung carcinoma, B16 melanoma and its F10 subline, M5076 sarcoma and colon adenocarcinoma 38; BALB/c for colon carcinoma 26, ADJ-PC6 plasmacytoma Madison lung carcinoma and colon adenocarcinoma 51, C3H for mammary adenocarcinoma 16/c. With the exception of the M5076 sarcoma, which is maintained as a i.p ascites cell suspension, all of the tumors were serially transplanted as s.c. solid tumors.
For therapeutic trials, tumors were aseptically removed from donor mice and prepared for implantation s.c. into test animals. The test animals for Lewis lung carcinoma, B16 melanoma and its F10 subline, M5076 sarcoma and colon adenocarcinoma 38 are syngeneic female F1 hybrid B6D2F mice (C57B1/6×DBA/2). ADJ-PC6 plasmacytoma and colon carcinoma 26 are evaluated in female BALB/c mice. Madison lung carcinoma and colon adenocarcinoma 51 are evaluated in syngeneic female F1 hybrid CD2F1 mice (BALB/c×DBA/2). Mammary adenocarcinoma 16/c is evaluated in female C3H mice. The inoculum varies with the tumor. Colon adenocarcinomas 38 is implanted as 2 mm fragments by trochar. M5076 sarcoma and ADJ-PC6 plasmacytoma are implanted as cell suspensions at 5×10^6 and 2×10^6 cells per mouse, respectively. Colon carcinoma 26, colon adenocarcinoma 51, Lewis lung carcinoma, Madison lung carcinoma and B16 melanoma and its F10 subline are implanted as tumor breis prepared as described above in a volume of 0.5 ml. The brei concentration was 10 percent (w:v) except for colon carcinoma 26 for which the brei concentration was 5 percent (w:v). After tumor inoculation, mice are randomized to treatment groups of 7 or 8 mice. In each experiment, there are three groups of untreated control mice.
Drugs are dissolved or suspended in appropriate aqueous vehicles and given by a variety of routes of administration and treatment schedules over a range of dosage levels. Animals are housed in shoebox cages and are monitored daily for mortality. […] Time for tumor measurement is dependent on the different rates of tumor growth of the different tumors: the most rapidly growing tumors such as the Lewis and Madison lung tumors, B16 melanoma and its F10 subline were measured between Days 12 and 16. The slower growing tumors were measured at later time points--17 days for M5076 sarcoma, 16 or 19 days for mammary adenocarcinoma 16/c, 19 days for ADJ-PC6 plasmacytoma and colon carcinoma 26, 24 days for colon adenocarcinoma 51, and 31 days for colon adenocarcinoma 38.

sc M5076 sarcoma = test: sc-implanted M5076 sarcoma in mice; conditions: mouse, in vivo
From the text: as §1

[2] = ip M5076, single dose on Days 1, 5, 9 and 13 ip, additional study
[3] = ip M5076, single dose on Days 1, 5 and 9 ip, additional study

CC[C@@]1(O)C(=O)OCc2c1cc1n(c2=O)Cc2cc3c(CN(C)C)c(O)ccc3nc2-1 [Compound No. 1S, (20 S) 9-Dimethylaminomethyl-10-hydroxycamptothecin Acetate Salt]
Increase in lifespan (ILS) (ip M5076 sarcoma; ip M5076, C/ip (every 3 hours x4 on Days 1, 5 and 9), 0.62 mg/kg/injection): 70% | Increase in lifespan (ILS) (ip M5076 sarcoma; ip M5076, C/ip (every 3 hours x4 on Days 1, 5 and 9), 1.2 mg/kg/injection): 75% | Increase in lifespan (ILS) (ip M5076 sarcoma; ip M5076, C/ip (every 3 hours x4 on Days 1, 5 and 9), 5 mg/kg/injection): toxic | Increase in lifespan (ILS) (ip M5076 sarcoma; ip M5076, C/ip (every 3 hours x4 on Days 1, 5 and 9), 10 mg/kg/injection): toxic | Increase in lifespan (ILS) (ip M5076 sarcoma; ip M5076, C/sc (every 3 hours x4 on Days 1, 5 and 9), 0.62 mg/kg/injection): 36% | Increase in lifespan (ILS) (ip M5076 sarcoma; ip M5076, C/sc (every 3 hours x4 on Days 1, 5 and 9), 1.2 mg/kg/injection): 70% | Increase in lifespan (ILS) (ip M5076 sarcoma; ip M5076, C/sc (every 3 hours x4 on Days 1, 5 and 9), 5 mg/kg/injection): toxic | Increase in lifespan (ILS) (ip M5076 sarcoma; ip M5076, C/sc (every 3 hours x4 on Days 1, 5 and 9), 10 mg/kg/injection): toxic | ILS (ip M5076 sarcoma; [2]): 71% | cures (ip M5076 sarcoma; [2]): 1/8 | ILS (ip M5076 sarcoma; [3]): 75% | cures (ip M5076 sarcoma; [3]): 1/8 | ILS (ip M5076 sarcoma; mouse, in vivo): 57 | Long-Term Survivors (ip M5076 sarcoma; mouse, in vivo, 1.2 mg/kg): 1/8 | Long-Term Survivors (ip M5076 sarcoma; mouse, in vivo, ip, 0.62 mg/kg): 1/8 | Long-Term Survivors (ip M5076 sarcoma; mouse, in vivo, ip, 1.2 mg/kg): 1/8 | bioavailability upon oral administration (sc Lewis lung carcinoma): excellent bioavailability upon oral administration | Tumor growth inhibition (TGI) (sc Lewis lung carcinoma; 3.2 mg/kg): 31% | Mice without Palpable Tumors (sc Lewis lung carcinoma; 5.4 mg/kg, Acetate Salt): 2/8 and 4/8 | Tumor growth inhibition (TGI) (sc Lewis lung carcinoma; 5.4 mg/kg, Acetate Salt): 68% and 87% | Tumor growth inhibition (TGI) (sc Lewis lung carcinoma; 5.8 mg/kg): 51% | longterm, tumorfree survivors (sc Lewis lung carcinoma; 9 mg/kg): 2/8 | Tumor growth inhibition (TGI) (sc Lewis lung carcinoma; 9 mg/kg, Acetate Salt): 99% and 93% | Mice without Palpable Tumors (sc Lewis lung carcinoma; 9.7 mg/kg): 2/8 | Tumor growth inhibition (TGI) (sc Lewis lung carcinoma; 9.7 mg/kg): 89% | Tumor growth inhibition (TGI) (sc Lewis lung carcinoma; 15 mg/kg): 95% | longterm, tumorfree survivors (sc Lewis lung carcinoma; 15 mg/kg): 4 of 8 | Mice without Palpable Tumors (sc Lewis lung carcinoma; 15 mg/kg, Acetate Salt): 8/8 and 3/8 | Tumor growth inhibition (TGI) (sc Lewis lung carcinoma; 15 mg/kg, Acetate Salt): 100% | longterm, tumorfree survivors (sc Lewis lung carcinoma; 15 mg/kg, Acetate Salt): 4/8 | Mice without Palpable Tumors (sc Lewis lung carcinoma; 16 mg/kg): 1/8 | Tumor growth inhibition (TGI) (sc Lewis lung carcinoma; 16 mg/kg): 90% | Mice without Palpable Tumors (sc Lewis lung carcinoma; 25 mg/kg): 5/8 | Tumor growth inhibition (TGI) (sc Lewis lung carcinoma; 25 mg/kg): toxic | Mice without Palpable Tumors (sc Lewis lung carcinoma; 27 mg/kg): 4/8 | Tumor growth inhibition (TGI) (sc Lewis lung carcinoma; 45 mg/kg): toxic | Increase in Lifespan (ILS) or Inhibition of Tumor Growth (TGI) (sc Lewis lung carcinoma; sc): Curative | Increase in Lifespan (ILS) or Inhibition of Tumor Growth (TGI) ([1]; mouse, in vivo, sc): 100 % TGI | Tumor growth inhibition (TGI) ([1]; sc B16/F10, B/ip (Days 1, 5, 9 and 13), 3.2 mg/kg/injection): 52% | Tumor growth inhibition (TGI) ([1]; sc B16/F10, B/ip (Days 1, 5, 9 and 13), 5.4 mg/kg/injection): 62% | Tumor growth inhibition (TGI) ([1]; sc B16/F10, B/ip (Days 1, 5, 9 and 13), 9 mg/kg/injection): 57% | Tumor growth inhibition (TGI) ([1]; sc B16/F10, B/ip (Days 1, 5, 9 and 13), 15 mg/kg/injection): 87% | Tumor growth inhibition (TGI) ([1]; sc B16/F10, B/ip (Days 1, 5, 9 and 13), 25 mg/kg/injection): 100% | Mice without Palpable Tumors ([1]; sc B16/F10, B/ip, 25 mg/kg/injection): 7/8 | Tumor growth inhibition (TGI) ([1]; sc B16/F10, F/iv (Days 1, 5 and 9), 3.2 mg/kg/injection): 22% | Tumor growth inhibition (TGI) ([1]; sc B16/F10, F/iv (Days 1, 5 and 9), 5.4 mg/kg/injection): 34% | Tumor growth inhibition (TGI) ([1]; sc B16/F10, F/iv (Days 1, 5 and 9), 9 mg/kg/injection): 60% | Tumor growth inhibition (TGI) ([1]; sc B16/F10, F/iv (Days 1, 5 and 9), 15 mg/kg/injection): 97% | Tumor growth inhibition (TGI) ([1]; sc B16/F10, F/iv (Days 1, 5 and 9), 25 mg/kg/injection): 97% | Mice without Palpable Tumors ([1]; sc B16/F10, F/iv, 3.2 mg/kg/injection): 1/8 | Mice without Palpable Tumors ([1]; sc B16/F10, F/iv, 5.4 mg/kg/injection): 1/8 | Mice without Palpable Tumors ([1]; sc B16/F10, F/iv, 9 mg/kg/injection): 2/8 | Mice without Palpable Tumors ([1]; sc B16/F10, F/iv, 15 mg/kg/injection): 7/8 | Mice without Palpable Tumors ([1]; sc B16/F10, F/iv, 25 mg/kg/injection): 6/8 | Increase in lifespan (ILS) ([1]; sc B16/F10, ip treatment at 25): 70% | tumor growth inhibition at two dose levels ([1]; sc B16/F10, iv on Days 1, 5 and 9): 97% | ILS ([1]; sc B16/F10, iv treatment at the same dose level (25)): 38% | inhibition of tumor growth at four dose levels at or below the maximally tolerated dose (sc ADJ-PC6 plasmacytoma; mouse, in vivo): > 90 | long term tumor-free survivors at each of the top three dose levels (sc ADJ-PC6 plasmacytoma; mouse, in vivo): 1 of 8 | Tumor growth inhibition (TGI) (sc ADJ-PC6 plasmacytoma; mouse, in vivo, 3.2 mg/kg): 93% | Tumor growth inhibition (TGI) (sc ADJ-PC6 plasmacytoma; mouse, in vivo, 5.4 mg/kg): 92% | long-term, tumorfree survivors (sc ADJ-PC6 plasmacytoma; mouse, in vivo, 5.4 mg/kg): 1/8 | Tumor growth inhibition (TGI) (sc ADJ-PC6 plasmacytoma; mouse, in vivo, 9 mg/kg): 100% | long-term, tumorfree survivors (sc ADJ-PC6 plasmacytoma; mouse, in vivo, 9 mg/kg): 1/8 | long-term, tumorfree survivors (sc ADJ-PC6 plasmacytoma; mouse, in vivo, 15 mg/kg): 1/8 | Tumor growth inhibition (TGI) (sc ADJ-PC6 plasmacytoma; mouse, in vivo, 25 mg/kg): toxic | Increase in Lifespan (ILS) or Inhibition of Tumor Growth (TGI) (sc ADJ-PC6 plasmacytoma; mouse, in vivo, sc): 100 % TGI | Mice without Palpable Tumors (sc ADJ-PC6 plasmacytoma; 3.2 mg/kg/injection): 3/8 | Mice without Palpable Tumors (sc ADJ-PC6 plasmacytoma; 5.4 mg/kg/injection): 4/8 | Mice without Palpable Tumors (sc ADJ-PC6 plasmacytoma; 9 mg/kg/injection): 8/8 | Mice without Palpable Tumors (sc ADJ-PC6 plasmacytoma; 15 mg/kg/injection): 7/7 | TGI at three dose levels at or below a maximally tolerated dose (sc M5076 sarcoma): > 90
